Experimental data taken from US20180282403A1, “AGENTS FOR REDUCING THE ACTIVITY OF GDF15” (GENAGON THERAPEUTICS AB, priority 2015, published 2018).

Tests used:
CLPTM1 = molecular target: T1, CLPTM1 (Homo sapiens, UniProt O96005); assay: In situ PLA detection of the CLPTM1-TGFBRI complex in NK-92 cells; assay type: cell-based; conditions: GDF15 stimulation, FIG. 14
T1 construct: endogenous in cells; host or cells: NK-92 cells
T1 sequence (O96005 1-669): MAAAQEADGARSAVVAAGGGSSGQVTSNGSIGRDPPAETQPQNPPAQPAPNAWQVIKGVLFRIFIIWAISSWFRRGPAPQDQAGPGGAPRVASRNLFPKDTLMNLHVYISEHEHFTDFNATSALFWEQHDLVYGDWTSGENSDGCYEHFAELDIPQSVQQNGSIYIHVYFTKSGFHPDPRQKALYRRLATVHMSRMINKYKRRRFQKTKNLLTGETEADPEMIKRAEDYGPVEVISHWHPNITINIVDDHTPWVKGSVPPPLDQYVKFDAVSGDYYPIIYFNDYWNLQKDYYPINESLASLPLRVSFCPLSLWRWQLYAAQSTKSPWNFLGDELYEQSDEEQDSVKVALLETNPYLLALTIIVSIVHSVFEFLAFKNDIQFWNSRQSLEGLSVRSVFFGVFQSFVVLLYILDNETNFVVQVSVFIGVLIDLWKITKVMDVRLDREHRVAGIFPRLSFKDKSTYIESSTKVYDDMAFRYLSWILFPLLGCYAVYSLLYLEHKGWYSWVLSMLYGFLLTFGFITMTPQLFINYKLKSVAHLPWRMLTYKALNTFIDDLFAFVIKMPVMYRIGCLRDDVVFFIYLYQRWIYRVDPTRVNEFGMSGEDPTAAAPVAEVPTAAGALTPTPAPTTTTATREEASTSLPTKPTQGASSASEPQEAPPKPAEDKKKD
Experimental: GDF15 has been reported in the literature to mediate downstream signalling resembling both the canonical (SMAD) pathway mediated by ALK5(TGFBRI) kinase domain, and non-canonical TGFβ receptor signalling, such as phosphorylation of GSK3b. In order to investigate if CLPTM1 was involved in this we developed a set of in situ PLA assays to determine the dynamics between CLPTM1 and the TGFβ receptors and components downstream of the TGFβ receptors. NK-92 cells were treated with GDF15 for 40 min to detect phosphorylated SMAD proteins such as SMAD2 in the nucleus. […] From previous experiments with TGFB1 stimulation we know that the assay (pSMAD2) was functional.

CD14+ cells = assay: Cytokine secretion by LPS-stimulated CD14+ cells (Proseek assay); assay type: cell-based; conditions: LPS stimulated CD14+ cells incubated with GDF15
Experimental: CD14+ cells where isolated and cultured in the presence or absence of GDF15 in a LPS stimulated culture.
Buffy coat cell suspension or heparinized blood samples were diluted with sterile, room temperature PBS. Peripheral blood samples are diluted 1:1, whereas buffy coats are diluted to a final volume of 120 ml (in a standard buffy coat this will result in slightly greater dilution than 1:1). The diluted cell suspension was layered onto Ficoll Paque PLUS. For one buffy 4×15 ml aliquots are used (30 ml of diluted cell suspension/tube). Cells were centrifuged at 400×g for 30 min at room temperature and transferred to a new 50 ml tube. Cells were washed once and resuspended in 20 ml PBS.
Mononuclear cell suspension was pelleted by centrifugation. Cells were resuspended in Stemcell buffer at a concentration of 10^8 cells/ml and transferred to a round bottom 14 ml tube. EasySep Positive Selection cocktail at was added at 100 μl/ml cells, mixed by gentle pipetting, and incubated at room temperature for 15 min. 50 μl EasySep Magnetic Nanoparticles per 1 ml cells were added and mixed, and incubated at room temperature for 10 min. Stemcell recommended medium was added to bring the cell suspension to a total volume of 5 ml and mixed by gently pipetting. The tube (without cap) was placed into the magnet and set aside for 5 min. After 5 minutes the supernatant was discarded. CD14+ labelled cells will remain inside the tube. The tube was removed from the magnet and add 5 ml Stemcell recommended medium was added and mixed by gently pipetting. The tube (without cap) was placed into the magnet and set aside for 5 min. The was step was repeated before the cells were resuspended in 5 ml complete RPMI medium. 50 μl of the CD14+ cell suspension was removed and counted to determine total cell number after dilution in Trypan blue solution and mounting on Fast Read 102 Counting Slides.
Adjust CD14+ cell suspension volume to a concentration of 0.833×10^6 cells/ml in complete RPMI medium. 300 μl of cell suspension is added to wells in a 48 well plate well (0.25×10^6 cells per well), and allowed to adhere for 90 min in an incubator at 37° C. Non-adherent cells were removed by removal of the supernatant after gently pipetting the medium. Cells were washed once with 300 μl pre-warmed complete RPMI medium and the medium aspirated off. 300 μl pre-warmed complete RPMI medium was added to each well and the cells were incubate overnight (20-24 h) in a cell incubator at 37° C.
A 17× stock solution of the desired GDF15 modulatory substances was diluted in complete RPMI. (20 μl of substance/well assayed). 20 μl of modulatory substance or medium/carrier (negative control) was added to each well and mixed by gentle pipetting. Cells were incubated for 30 min in a cell incubator at 37° C. A 17×GDF15 solution was prepared by diluting a 100 μg/ml stock solution to a concentration of 8.5 μg/ml (final concentration in culture 0.5 μg/ml) in complete RPMI. 20 μl of diluted GDF15 was added per well, and incubated overnight (18-20 h) in a cell incubator at 37° C.
A 18×LPS solution was prepared by diluting the LPS stock solution to a concentration of 18 ng/ml (final concentration in culture 1 ng/ml) in complete RPMI. 20 μl of LPS or medium (negative control) was added to each well and mixed by gentle pipetting. […]
Secreted proteins from cell cultures where quantified using multiplexed proximity extension assay, Proseek (Assarsson E et al PlosOne 2014) by Olink Proteomics AB (Uppsala Sweden). […]

GDF15: Growth and differentiation factor 15, from mammalian source or recombinant from E. coli (Abcam, Biovision)
proximity between CLPTM1 and TGFBRI(ALK5) (CLPTM1): induced proximity between CLPTM1 and TGFBRI(ALK5)
LPS response secretion of IL12 (CD14+ cells): reduced
LPS response secretion of TNF (CD14+ cells): reduced
